The text below walks through data of patent US20090142411A1, “Composition and Device Comprising an Inorganic Component (Metal Compound) for Coagulation of Protein-Containing Fluids” (SMITH & NEPHEW, PLC, priority 2005, published 2009).

One assay relates to gelatine. Briefly: coagulation of gelatine solution. The following applies: 5 μl aliquot of 350 mg/ml solution, 100 μl gelatine solution 40 mg/ml in PBS, immediately.
A short description of assay [1]: coagulation of chronic wound fluid. Here is the method:
(§1) The oxide powder was allowed to settle to the bottom of the vessel (0.5 ml capacity Eppendorf tube) and was left undisturbed for 2 hours. […] The vessel was left undisturbed for 24 h.

Assay [2] can be described thus: coagulation of whole human blood. As to conditions: 1-5 μl aliquots of 350 mg/ml solution, 100 μl whole human blood. The protocol:
Examples 4-9 were repeated with 100 μl whole human blood in place of the bovine serum albumin solution.

Assay [3] can be described thus: coagulation of heat-inactivated foetal calf serum. The protocol:
as §1

A short description of assay [4]: coagulation of whole human saliva. The following applies: 5 gi aliquot of 350 mg/ml solution in PBS pH 7.4, 100 μl whole human saliva, 30 minutes. Here is the method: (§2) The vessel was left undisturbed for 30 minutes.
A further assay has as its target bovine serum albumin (Bos taurus, UniProt P02769). The experiment in a line: coagulation of bovine serum albumin solution. As to conditions: 10 mg powder in 100 μl bovine serum albumin 40 mg/ml in PBS pH 7.4, undisturbed 2 hours. The protocol: The oxide powder was allowed to settle to the bottom of the vessel (0.5 ml capacity Eppendorf tube) and was left undisturbed for 2 hours.
as §2, §2, §2, §2, §2
The vessel was left undisturbed for 24 h.

Chain of bovine serum albumin (P02769 25-607): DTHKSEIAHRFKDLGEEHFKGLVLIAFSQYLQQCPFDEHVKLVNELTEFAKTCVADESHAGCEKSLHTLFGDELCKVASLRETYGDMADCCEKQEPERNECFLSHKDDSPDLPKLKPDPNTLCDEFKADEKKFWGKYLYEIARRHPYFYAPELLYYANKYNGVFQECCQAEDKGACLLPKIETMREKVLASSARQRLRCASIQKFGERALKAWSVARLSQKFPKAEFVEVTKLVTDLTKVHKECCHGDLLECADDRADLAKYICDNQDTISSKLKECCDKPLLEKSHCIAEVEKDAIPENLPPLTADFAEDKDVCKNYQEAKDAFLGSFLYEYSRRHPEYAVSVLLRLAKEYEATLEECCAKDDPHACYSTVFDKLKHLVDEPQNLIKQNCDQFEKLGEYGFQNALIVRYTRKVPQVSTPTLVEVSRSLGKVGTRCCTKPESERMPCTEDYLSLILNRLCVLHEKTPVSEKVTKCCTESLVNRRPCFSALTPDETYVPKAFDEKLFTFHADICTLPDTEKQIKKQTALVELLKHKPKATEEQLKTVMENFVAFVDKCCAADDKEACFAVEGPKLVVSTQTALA

With gold (III) chloride, the “coagulation / precipitate formation” value in the assay on gelatine is on record as “a fibrous precipitate was formed”. The “coagulation, Examples 4-9 repeated” value in assay [1] (1-5 μl aliquots of 350 mg/ml solution, 100 μl chronic wound fluid) is “The results were the same”; in assay [2], “The results were the same”; in assay [3] (1-5 μl aliquots of 350 mg/ml solution, 100 μl heat-inactivated foetal calf serum) it was “The results were the same”. Also, the coagulation result is “the fluid coagulated” in assay [1] (5 μl aliquot of 350 mg/ml solution, chronic wound fluid, 1.0 ml syringe, 24 h); “the fluid coagulated” in assay [3] (5 μl aliquot of 350 mg/ml solution, heat-inactivated foetal calf serum, 1.0 ml syringe, 24 h); “a lightly coagulated, opaque mass of several millimetres thickness was formed” in assay [4].

Regarding “gold (III) oxide [gold (III) oxide powder]”, the coagulation result in assay [1] (10 mg powder in 100 μl chronic wound fluid, overnight) is reported as “the entire fluid volume had coagulated”; in assay [1] (10 mg powder in 100 μl chronic wound fluid, undisturbed 2 hours), “a coagulated, opaque mass of several millimetres thickness was formed”; on bovine serum albumin, “a coagulated, opaque mass of several millimetres thickness was formed”; in assay [3] (10 mg powder in 100 μl heat-inactivated foetal calf serum, undisturbed 2 hours), “a coagulated, opaque mass of several millimetres thickness was formed”.
